Data: patent publication US20230158006A1, “USE OF DIRECT THROMBIN INHIBITORS IN THE TREATMENT OF NEURODEGENERATIVE DISEASES” (priority 2020, published 2023)
Entries after “also recorded” stand apart in the source; their conditions may differ.

What was measured:
[1] = tested on: rat brain endothelial cells; assay: Cell survival by MTT assay, brain endothelial cell cultures exposed to hypoxia or normoxia; assay type: cell-based
Excerpt: (§1) Culture and hypoxic exposure of rat brain endothelial cells: Brain endothelial cell cultures were obtained from rat brain micro-vessels, as previously described (Diglio et al., 1993). The purity of these cultures was confirmed using antibodies to the endothelial cell surface antigen Factor VIII. Endothelial cells used in this study (passages 8-15) were maintained in Dulbecco's modified Eagle's medium (DMEM, Sigma-Aldrich, St. Louis, Mo.) supplemented with 10% fetal bovine serum (FBS), 1% antibiotic/antimycotic, and 2 mM glutamine. Confluent endothelial cell cultures were washed three times with Hank's balanced salt solution (HBSS, Gibco, Grand Island, N.Y.) and then incubated at 37° C. with serum-free DMEM for 6 h under hypoxic (1% 02) or normoxic (21% 02) conditions.
Measurement of cell survival by MTT assay: Cells were washed with phosphate buffer saline (PBS) and incubated with the MTT reagent 3-(4,5-dimethylthiazol-2-yl)-2-5-diphenyl tetrazolium bromide (1:40 dilution) for 5-10 min at 37° C. The cells convert the MTT reagent to formazan which is quantified by colorimetric assay (Cell Titer 95 Aqueous solution cell proliferation assay, Promega, Madison, Wis.). The formazan product was read at 490 nm. The number of control cells, i.e., viable cells not exposed to any treatment, was defined as 100%.
Brain micro-vessel endothelial cell cultures were incubated with the DTI dabigatran (10 pM-100 nM), exposed to hypoxia for 6 h and cell viability measured by MTT assay. There was a modest (19%) but significant (p<0.05) increase in cell survival at 1-10 nM DTI while DTI doses in excess of 100 nM were toxic.

[2] = tested on: HIF-1a, thrombin, IL-6, MCP-1, MMP2; assay: Immunofluorescence of cerebrovascular expression of HIF-1a and inflammatory proteins in AD transgenic mice; assay type: in vivo; conditions: 100 mg/kg daily for 34 weeks
Experimental: (§2) Administration of thrombin inhibitor to mice and immunofluorescent staining of mice brain sections: Adult wild-type 3×TgAD—LaFerla (control) and 3×TgAD—LaFerla mice were purchased at 8 weeks of age from The Jackson Laboratory (Bar Harbor, Me.). Daily administration of the orally available direct thrombin inhibitor (DTI) dabigatran etexylate (Pradaxa®, Boehringer Ingelheim, Germany) (100 mg/kg) in PBS to AD mice and vehicle to control mice began at 18 weeks of age and continued daily for 34 weeks. DTI was administered in food. To ensure all food, and therefore drug, was consumed while maintaining ad libitum weight, mice were weighed, and food intake monitored daily. All animal procedures were performed in accordance with NIH “Guide for the Care and Use of Laboratory Animals” and Texas Tech University Health Sciences Center Institutional Animal Care and Use Committee (IACUC) guidelines.
Mice were euthanized, and brain tissue fixed with 10% neutral buffered formalin (NBF). The brain was removed and 1 mm blocks of tissue from cerebral cortex were post fixed in 10% NBF for additional 12 h and embedded in paraffin. […] Sections (3 per mouse) were incubated with DAPI solution at room temperature for 25 min and viewed using an Olympus IX71 microscope and quantified with HAMAMATSU imaging software. […]

TNFa, IL-6, IL-8, MMPs = assay: Production of inflammatory proteins from endothelial cells in AD models
[3] = tested on: HIF-1a, thrombin, IL-6, MCP-1, MMP2 mRNA; assay: Real-time PCR of inflammatory gene expression in brain endothelial cells exposed to 6 h hypoxia; assay type: cell-based, rat; conditions: 1 nM, p<0.01-0.001, FIG. 1
Excerpt: as §1
Real-time PCR analysis: RNA from cultured rat brain endothelial cells was prepared using the TRI Reagent RT (Molecular Research Center, Inc., Cincinnati, Ohio), according to manufacturer protocol. […] Fold difference between two samples (relative quantification) was determined by use of the delta-delta method [S1/S2=2−(T1−T2)], where S1 and S2 represent samples 1 and 2, and T1 and T2 represent the threshold cycles of samples 1 and 2, respectively. […]

reactive oxygen species = assay: ROS level (DHE) in frontal cortex brain sections of AD transgenic mice; assay type: in vivo; conditions: DTI for 34 weeks, p<0.001 vs untreated AD mice
Experimental: Administration of thrombin inhibitor to mice and immunofluorescent staining of mice brain sections: Adult wild-type 3×TgAD—LaFerla (control) and 3×TgAD—LaFerla mice were purchased at 8 weeks of age from The Jackson Laboratory (Bar Harbor, Me.). Daily administration of the orally available direct thrombin inhibitor (DTI) dabigatran etexylate (Pradaxa®, Boehringer Ingelheim, Germany) (100 mg/kg) in PBS to AD mice and vehicle to control mice began at 18 weeks of age and continued daily for 34 weeks. DTI was administered in food. To ensure all food, and therefore drug, was consumed while maintaining ad libitum weight, mice were weighed, and food intake monitored daily. […]
Detection of reactive oxygen species in cell culture and mouse brain tissue sections: Brain endothelial cell cultures were grown on coverslips in 24-well plates, incubated at 37° C. in serum free media with or without dabigatran (DTI, 1 nM) and exposed to hypoxic (6 h, 1% 02) or normoxic (21% 02) conditions. […] Brain sections and cell cultures were incubated with 5 pM of dihydroethidium (DH E) fluorescence dye (Life Technologies, Grand Island, N.Y.; D23107) and Hoechst33342 NucBlue® stain (Life Technologies, R37605) for 30 min in the dark at room temperature. […] Following two washes with PBS, images were captured immediately using an Olympus IX71 microscope and analyzed using HAMAMATSU imaging software. […]

[4] = tested on: reactive oxygen species in brain endothelial cell cultures; assay: ROS levels (DHE) in cultured brain endothelial cells; assay type: cell-based, rat; conditions: for hypoxia-induced increase in ROS generation: 6 h hypoxia, p<0.001; for ROS level, mean signal intensity of DHE stained cells to non-stained cells: DTI 1 nM, mean ± SD
Excerpt: as §1
Detection of reactive oxygen species in cell culture and mouse brain tissue sections: Brain endothelial cell cultures were grown on coverslips in 24-well plates, incubated at 37° C. in serum free media with or without dabigatran (DTI, 1 nM) and exposed to hypoxic (6 h, 1% 02) or normoxic (21% 02) conditions. Sections from frozen brain (10-20 µm thickness) were placed on coverslips in 24-well plates with 0.5 ml of PBS at room temperature. Brain sections and cell cultures were incubated with 5 pM of dihydroethidium (DH E) fluorescence dye (Life Technologies, Grand Island, N.Y.; D23107) and Hoechst33342 NucBlue® stain (Life Technologies, R37605) for 30 min in the dark at room temperature. DHE is a cell permeable compound which reacts with intracellular ROS to form oxyethidium, which emits a bright red color detectable by fluorescent microscopy. Following two washes with PBS, images were captured immediately using an Olympus IX71 microscope and analyzed using HAMAMATSU imaging software.
Brain endothelial cell cultures were incubated in serum-free media or serum free media plus DTI (1 nM) and exposed to hypoxia (1% 02) or normoxic (21% 02) conditions for 6 h. The cells were incubated for 30 min with 5 pM of Dihydroethidium (DHE, red) fluorescent dye and NucBlue stain (blue). ROS generation was assessed by quantitation of signal intensities of DHE stained cells to non-stained cells. Data represent mean signal intensity of DHE stained cells to non-stained cells±SD from at least 3 separate experiments performed in duplicate. ***p<0.001 vs. Control; a p<0.001 vs. Hypoxia.

brain oxidative stress = assay: Short treatment of transgenic Tg4510 AD mice, brain oxidative stress; assay type: in vivo; conditions: non-published results
Experimental: Fifteen-month-old Tg4510 mice (The Jackson Laboratory, Bar Harbor, Me.) treated for one week with vehicle dimethyl sulfoxide (DMSO) (Spectrum Chemicals & Laboratory Products, New Brunswick, N.J.) or Dabigatran (Pradaxa®, Boehringer Ingelheim Pharmaceuticals, Inc., Ridgefield, Conn.) at doses of 100 mg/kg via oral gavage. Wild-type control mice were treated with vehicle for one week. Brains were collected and homogenized and protein expression was evaluated using western blot.

[5] = tested on: HIF-1a, thrombin, IL-6, MCP-1, MMP2 mRNA; assay: Real time PCR of brain tissue from AD transgenic mice; assay type: in vivo; conditions: 100 mg/kg daily for 34 weeks
Experimental: as §2
Real-time PCR analysis: RNA from cultured rat brain endothelial cells was prepared using the TRI Reagent RT (Molecular Research Center, Inc., Cincinnati, Ohio), according to manufacturer protocol. […] Fold difference between two samples (relative quantification) was determined by use of the delta-delta method [S1/S2=2−(T1−T2)], where S1 and S2 represent samples 1 and 2, and T1 and T2 represent the threshold cycles of samples 1 and 2, respectively.

**Q.** With `CCCCCCOC(=O)NC(=N)c1ccc(NCc2nc3cc(C(=O)N(CCC(=O)OCC)c4ccccn4)ccc3n2C)cc1` as the molecule, how does the “increase in cell survival” value ([1]; hypoxia 6 h, 1-10 nM DTI, p<0.05) read?
**A.** 19%

**Q.** What about the “DTI doses toxic to cells” value ([1]; hypoxia 6 h, MTT) of the same molecule?
**A.** > 100 nM

**Q.** What about the “effect on cell survival under normoxic conditions” value ([1]; normoxic, doses under 100 nM, data not shown) of the same molecule?
**A.** did not affect cell survival

**Q.** What about the “cerebrovascular expression of HIF-1a, thrombin, IL-6, MCP-1, MMP2 proteins” value ([2]; FIG. 2) of the same molecule?
**A.** significantly decreases expression

**Q.** What about the “cerebrovascular expression of HIF-1a, thrombin, IL-6, MCP-1, MMP2 proteins” value ([2]; FIG. 2, listed as DTI) of the same molecule?
**A.** reduced expression of these proteins

**Q.** And the “production of TNFa, IL-6, IL-8, MMPs and other inflammatory proteins from endothelial cells” value (TNFa, IL-6, IL-8, MMPs)?
**A.** reducing the production

**Q.** What about the “hypoxia-mediated effects on inflammatory gene expression (HIF-1a, thrombin, IL-6, MCP-1, MMP2 mRNA)” value [3] of the same molecule?
**A.** reduced hypoxia-mediated effects on inflammatory gene expression

**Q.** And the “ROS generation (DHE level) in brain sections” value (reactive oxygen species; FIG. 4)?
**A.** inhibited; also recorded: significantly decreases expression

**Q.** What about the “ROS generation (DHE level) in brain sections” value (reactive oxygen species; FIG. 4, listed as DTI) of the same molecule?
**A.** decreased DHE level

**Q.** What about the “hypoxia-induced increase in ROS generation” value [4] of the same molecule?
**A.** inhibited

**Q.** And the “hypoxia-induced increase in ROS generation” value ([4]; listed as DTI)?
**A.** blocked

**Q.** And the “ROS level, mean signal intensity of DHE stained cells to non-stained cells” value ([4]; Control + DTI: normoxic (21% O2) 6 h)?
**A.** 0.65±

**Q.** And the “ROS level, mean signal intensity of DHE stained cells to non-stained cells” value ([4]; Hypoxia + DTI: hypoxia (1% O2) 6 h, p<0.001 vs. Hypoxia)?
**A.** 0.92 ± 0.06a

**Q.** And the brain oxidative stress (brain oxidative stress)?
**A.** lowering brains' oxidative stress

**Q.** What about the “RNA levels of HIF-1a, thrombin, IL-6, MCP-1, MMP2 in brain tissue” value ([5]; p<0.01 to p<0.001, FIG. 3) of the same molecule?
**A.** reduces expression

**Q.** What about the “RNA levels of HIF-1a, thrombin, IL-6, MCP-1, MMP2 in brain tissue” value ([5]; p<0.01 to p<0.001, FIG. 3, listed as DTI) of the same molecule?
**A.** decrease in RNA levels
